Experimental data taken from patent US10316028B2, “Orexin receptor antagonists” (Heptares Therapeutics Limited, priority 2012, dated 2019).

These compounds were tested against T1, human Orexin-2 receptor (Homo sapiens, UniProt O43614) (assay: 3H-EMPA radioligand binding assay). Conditions: 3H-EMPA displacement, membranes of HEK293 cells transfected with human Orexin-2 receptor; KI by Cheng-Prussoff; read-out: OX2 pKi ave (converted).
T1 construct: expressed in transfected cells; host or cells: HEK293 cells (transient transfection, Genejuice); membranes
T1 sequence (O43614 1-444): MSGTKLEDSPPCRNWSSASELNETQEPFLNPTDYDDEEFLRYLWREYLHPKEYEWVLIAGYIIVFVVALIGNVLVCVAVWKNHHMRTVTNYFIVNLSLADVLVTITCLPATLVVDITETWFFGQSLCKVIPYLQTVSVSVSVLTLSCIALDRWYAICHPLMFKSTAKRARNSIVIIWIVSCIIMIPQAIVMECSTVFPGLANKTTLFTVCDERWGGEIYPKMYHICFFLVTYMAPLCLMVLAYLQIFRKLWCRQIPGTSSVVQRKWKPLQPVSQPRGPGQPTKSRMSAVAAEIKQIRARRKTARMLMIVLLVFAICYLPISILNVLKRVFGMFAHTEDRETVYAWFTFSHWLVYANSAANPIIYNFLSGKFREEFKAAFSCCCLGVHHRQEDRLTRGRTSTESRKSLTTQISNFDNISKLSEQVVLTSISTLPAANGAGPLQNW
How it was run: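 Membranes from HEK293 cells transiently transfected with human orexin-2 receptor cDNA, assayed with [3H]EMPA. Bound ligand collected on PEI-treated GF/B filters and counted by scintillation; IC50 from inhibition curves, Ki by Cheng-Prusoff.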

| SMILES | Ki [nM] |
| --- | --- |
| O=C1N(Cc2c(F)cc(F)cc2F)c2ccccc2S(=O)(=O)N1c1ccc2ncsc2c1 [Example 124, 2-(1,3-Benzothiazol-6-yl)-4-(2,4,6-trifluorobenzyl)-2H-1,2,4-benzothiadiazin-3(4H)-one 1,1-dioxide] | 5.01 |
| Cn1nc(CN2C(=O)N(Cc3c(F)cccc3F)c3ccccc3S2(=O)=O)c2ccccc21 [Example 125, 4-(2,6-Difluorobenzyl)-2-[(1-methyl-1H-indazol-3-yl)methyl]-2H-1,2,4-benzothiadiazin-3(4H)-one 1,1-dioxide] | 38 |
| O=C1N(Cc2c(F)cccc2F)c2ccccc2S(=O)(=O)N1Cc1cc(=O)[nH]c2ccccc12 [Example 126, 4-(2,6-Difluorobenzyl)-2-[(2-oxo-1,2-dihydroquinolin-4-yl)methyl]-2H-1,2,4-benzothiadiazin-3(4H)-one 1,1-dioxide] | 35.5 |
| Cc1cc(CN2C(=O)N(Cc3c(F)cccc3Cl)c3ccccc3S2(=O)=O)n(C)n1 [Example 127, 4-(2-Chloro-6-fluorobenzyl)-2-[(1,3-dimethyl-1H-pyrazol-5-yl)methyl]-2H-1,2,4-benzothiadiazin-3(4H)-one 1,1-dioxide] | 58.9 |
| O=C1N(Cc2c(F)cccc2Cl)c2ccccc2S(=O)(=O)N1Cc1ccccn1 [Example 128, 4-(2-Chloro-6-fluorobenzyl)-2-(pyridin-2-ylmethyl)-2H-1,2,4-benzothiadiazin-3(4H)-one 1,1-dioxide] | 79.4 |
| Cc1cc(CN2C(=O)N(Cc3c(F)cccc3Cl)c3ccccc3S2(=O)=O)no1 [Example 129, 4-(2-Chloro-6-fluorobenzyl)-2-[(5-methyl-1,2-oxazol-3-yl)methyl]-2H-1,2,4-benzothiadiazin-3(4H)-one 1,1-dioxide] | 115 |
| COc1ccc(N2C(=O)N(Cc3ccccc3C)c3c(F)cccc3S2(=O)=O)cn1 [Example 130, 5-Fluoro-2-(6-methoxypyridin-3-yl)-4-(2-methylbenzyl)-2H-1,2,4-benzothiadiazin-3(4H)-one 1,1-dioxide] | 87.1 |
| Cn1ccnc1CN1C(=O)N(Cc2c(F)cccc2F)c2ccccc2S1(=O)=O [Example 131, 4-(2,6-Difluorobenzyl)-2-[(1-methyl-1H-imidazol-2-yl)methyl]-2H-1,2,4-benzothiadiazin-3(4H)-one 1,1-dioxide] | 295 |
| Cn1cc(N2C(=O)N(Cc3c(F)cccc3Cl)c3ccccc3S2(=O)=O)ccc1=O [Example 132, 4-(2-Chloro-6-fluorobenzyl)-2-(1-methyl-6-oxo-1,6-dihydropyridin-3-yl)-2H-1,2,4-benzothiadiazin-3(4H)-one 1,1-dioxide] | 302 |
| CCN1CCCC(N2C(=O)N(Cc3c(F)cccc3F)c3ccccc3S2(=O)=O)C1 (centres unmarked) [Example 133, 4-(2,6-Difluorobenzyl)-2-(1-ethylpiperidin-3-yl)-2H-1,2,4-benzothiadiazin-3(4H)-one 1,1-dioxide] | 661 |
| Cc1cc(CN2C(=O)N(Cc3ccc(Cl)cc3F)c3ccccc3S2(=O)=O)n(C)n1 [Example 134, 4-(4-Chloro-2-fluorobenzyl)-2-[(1,3-dimethyl-1H-pyrazol-5-yl)methyl]-2H-1,2,4-benzothiadiazin-3(4H)-one 1,1-dioxide] | 39.8 |
| COc1ccc(N2C(=O)N(Cc3c(F)cc(C)cc3Cl)c3ccccc3S2(=O)=O)cn1 [Example 135, 4-(2-Chloro-6-fluoro-4-methylbenzyl)-2-(6-methoxypyridin-3-yl)-2H-1,2,4-benzothiadiazin-3(4H)-one 1,1-dioxide] | 13.8 |
| COc1cc(F)c(CN2C(=O)N(c3ccc(OC)nc3)S(=O)(=O)c3ccccc32)c(F)c1 [Example 136, 4-(2,6-Difluoro-4-methoxybenzyl)-2-(6-methoxypyridin-3-yl)-2H-1,2,4-benzothiadiazin-3(4H)-one 1,1-dioxide] | 10.7 |
| COc1ncc(N2C(=O)N(Cc3c(F)cccc3Cl)c3ccccc3S2(=O)=O)cn1 [Example 137, 4-(2-Chloro-6-fluorobenzyl)-2-(2-methoxypyrimidin-5-yl)-2H-1,2,4-benzothiadiazin-3(4H)-one 1,1-dioxide] | 38 |
| COc1cc(F)c(CN2C(=O)N(c3cccc(OC)n3)S(=O)(=O)c3ccccc32)c(F)c1 [Example 138, 4-(2,6-Difluoro-4-methoxybenzyl)-2-(6-methoxypyridin-2-yl)-2H-1,2,4-benzothiadiazin-3(4H)-one 1,1-dioxide] | 1.45 |
| COc1cccc(N2C(=O)N(Cc3c(F)cc(F)cc3Cl)c3ccccc3S2(=O)=O)n1 [Example 139, 4-(2-Chloro-4,6-difluorobenzyl)-2-(6-methoxypyridin-2-yl)-2H-1,2,4-benzothiadiazin-3(4H)-one 1,1-dioxide] | 13.8 |

| SMILES | Ki [nM] |
| --- | --- |
| COc1cc(F)c(CN2C(=O)N(c3ccnc(OC)c3)S(=O)(=O)c3ccccc32)c(F)c1 [Example 140, 4-(2,6-Difluoro-4-methoxybenzyl)-2-(2-methoxypyridin-4-yl)-2H-1,2,4-benzothiadiazin-3(4H)-one 1,1-dioxide] | 3.31 |
| COc1cc(N2C(=O)N(Cc3c(F)cc(F)cc3Cl)c3ccccc3S2(=O)=O)ccn1 [Example 141, 4-(2-Chloro-4,6-difluorobenzyl)-2-(2-methoxypyridin-4-yl)-2H-1,2,4-benzothiadiazin-3(4H)-one 1,1-dioxide] | 6.92 |
| Cc1ccc(N2C(=O)N(Cc3c(F)cccc3Cl)c3ccccc3S2(=O)=O)cn1 [Example 142, 4-(2-Chloro-6-fluorobenzyl)-2-(6-methylpyridin-3-yl)-2H-1,2,4-benzothiadiazin-3(4H)-one 1,1-dioxide] | 29.5 |
| COc1cc(N2C(=O)N(Cc3c(F)cccc3Cl)c3ccccc3S2(=O)=O)ccn1 [Example 143, 4-(2-Chloro-6-fluorobenzyl)-2-(2-methoxypyridin-4-yl)-2H-1,2,4-benzothiadiazin-3(4H)-one 1,1-dioxide] | 15.8 |
| COc1cccc(N2C(=O)N(Cc3c(F)cc(F)cc3F)c3ccccc3S2(=O)=O)n1 [Example 144, 2-(6-Methoxypyridin-2-yl)-4-(2,4,6-trifluorobenzyl)-2H-1,2,4-benzothiadiazin-3(4H)-one 1,1-dioxide] | 50.1 |
| COc1cc(F)c(CN2C(=O)N(c3cnc(OC)c(OC)c3)S(=O)(=O)c3ccccc32)c(F)c1 [Example 146, 4-(2,6-difluoro-4-methoxybenzyl)-2-(5,6-Dimethoxypyridin-3-yl)-2H-1,2,4-benzothiadiazin-3(4H)-one 1,1-dioxide] | 0.363 |
| COc1ccc(N2C(=O)N(Cc3c(F)cc(F)cc3F)c3ccccc3S2(=O)=O)nc1OC [Example 147, 2-(5,6-Dimethoxypyridin-2-yl)-4-(2,4,6-trifluorobenzyl)-2H-1,2,4-benzothiadiazin-3(4H)-one 1,1-dioxide] | 1.58 |
| COc1cc(N2C(=O)N(Cc3c(F)cc(F)cc3F)c3ccccc3S2(=O)=O)cc(OC)n1 [Example 148, 2-(2,6-Dimethoxypyridin-4-yl)-4-(2,4,6-trifluorobenzyl)-2H-1,2,4-benzothiadiazin-3(4H)-one 1,1-dioxide] | 1.38 |
| COc1cc(F)c(CN2C(=O)N(c3cc(OC)nc(OC)c3)S(=O)(=O)c3ccccc32)c(F)c1 [Example 149, 4-(2,6-Difluoro-4-methoxybenzyl)-2-(2,6-dimethoxypyridin-4-yl)-2H-1,2,4-benzothiadiazin-3(4H)-one 1,1-dioxide] | 0.138 |
| CCn1cc(N2C(=O)N(Cc3c(F)cccc3Cl)c3ccccc3S2(=O)=O)cn1 [Example 150, 4-(2-Chloro-6-fluorobenzyl)-2-(1-ethyl-1H-pyrazol-4-yl)-2H-1,2,4-benzothiadiazin-3(4H)-one 1,1-dioxide] | 17.4 |
| CSc1cncc(N2C(=O)N(Cc3c(F)cccc3Cl)c3ccccc3S2(=O)=O)c1 [Example 151, 4-(2-Chloro-6-fluorobenzyl)-2-[5-(methylsulfanyl)pyridin-3-yl]-2H-1,2,4-benzothiadiazin-3(4H)-one 1,1-dioxide] | 2 |
| CSc1cncc(N2C(=O)N(Cc3c(F)cc(F)cc3F)c3ccccc3S2(=O)=O)c1 [Example 152, 2-[5-(Methylsulfanyl)pyridin-3-yl]-4-(2,4,6-trifluorobenzyl)-2H-1,2,4-benzothiadiazin-3(4H)-one 1,1-dioxide] | 5.89 |
| COc1cc(F)c(CN2C(=O)N(c3ccc(OC)c(OC)n3)S(=O)(=O)c3ccccc32)c(F)c1 [Example 153, 4-(2,6-Difluoro-4-methoxybenzyl)-2-(5,6-dimethoxypyridin-2-yl)-2H-1,2,4-benzothiadiazin-3(4H)-one 1,1-dioxide] | 0.224 |
| COc1cc(F)c(CN2C(=O)N(c3ccc(OC)nc3)S(=O)(=O)c3ccccc32)c(Cl)c1 [Example 154, 4-(2-Chloro-6-fluoro-4-methoxybenzyl)-2-(6-methoxypyridin-3-yl)-2H-1,2,4-benzothiadiazin-3(4H)-one 1,1-dioxide] | 3.02 |
| COc1cc(N2C(=O)N(Cc3c(F)cc(F)cc3Cl)c3ccccc3S2(=O)=O)cnc1OC [Example 155, 4-(2-Chloro-4,6-difluorobenzyl)-2-(5,6-dimethoxypyridin-3-yl)-2H-1,2,4-benzothiadiazin-3(4H)-one 1,1-dioxide] | 1.74 |
| O=C1N(Cc2c(F)cc(F)cc2F)c2ccccc2S(=O)(=O)N1Cc1cc(=O)[nH]c2ccccc12 [Example 156, 4-(2,4,6-Trifluorobenzyl)-2-[(2-oxo-1,2-dihydroquinolin-4-yl)methyl]-2H-1,2,4-benzothiadiazin-3(4H)-one 1,1-dioxide] | 11.2 |
